Molecular target: T1, PRMT5/MEP50 (Homo sapiens, UniProt O14744)
T1 construct: Expressed full-length human Flag-PRMT5/6His-MeP50 protein complex was purified; made in house; host or cells: Spodoptera frugiperda (SF9) insect cells, baculovirus (pDEST8)
Experiment: PRMT5 Biochemical Assay (PRMT5/MEP50 enzyme assay on peptide substrate, 3H-SAM Flashplate)
Conditions: Table D-2; read-out: Biochemical IC50
Text: S-adenosylmethionine (SAM), S-adenosylhomocysteine (SAH), bicine, KCl, Tween20, dimethylsulfoxide (DMSO), bovine skin gelatin (BSG), and Tris(2-carboxyethyl)phosphine hydrochloride solution (TCEP) were purchased from Sigma-Aldrich at the highest level of purity possible. ^3H-SAM was purchase from American Radiolabeled Chemicals with a specific activity of 80 Ci/mmol 384-well streptavidin Flashplates were purchased from PerkinElmer.
Peptide representative of human histone H4 residues 1-15 was synthesized with a C-terminal linker-affinity tag motif and a C-terminal amide cap by 21st Century Biochemicals. […] The sequence was Ac-[…][K-Biot]-amide (SEQ ID NO.:3).
Full-length human MEP50 (NM_024102) clone was amplified from a human testis cDNA library incorporating a 5′ sequence encoding a 6-histidine tag (MHHHHHH) (SEQ ID NO.:5) fused directly to Arg 2 of MEP50. The amplified genes were sublconed into pENTR/D/TEV (Life Technologies) and subsequently transferred by Gateway™ attL×attR recombination to pDEST8 baculvirus expression vector (Life Technologies).
Recombinant baculovirus and Baculovirus-Infected Insect Cells (BIIC) were generated according to Bac-to-Bac kit instructions (Life Technologies) and Wasilko, 2006, respectively. Protein over-expression was accomplished by infecting exponentially growing Spodoptera frugiperda (SF9) cell culture at 1.2×10^6 cell/ml with a 5000 fold dilution of BIIC stock. Infections were carried out at 27° C. for 72 hours, harvested by centrifugation, and stored at −80° C. for purification.
Flag-PRMT5/6His-MeP50 was eluted with 300 mM Imidazole in the same buffer. […] Reference: Wasilko, D. J. and S. E. Lee: “TIPS: titerless infected-cells preservation and scale-up” Bioprocess J., 5 (2006), pp. 29-32.
General Procedure for PRMT5/MEP50 Enzyme Assays on Peptide Substrates.
The assays were all performed in a buffer consisting of 20 mM Bicine (pH=7.6), 1 mM TCEP, 0.005% BSG, and 0.002% Tween20, prepared on the day of use. Compounds in 100% DMSO (1 ul) were spotted into a polypropylene 384-well V-bottom plates (Greiner) using a Platemate Plus outfitted with a 384-channel head (Thermo Scientific). DMSO (1 ul) was added to Columns 11, 12, 23, 24, rows A-H for the maximum signal control and 1 ul of SAH, a known product and inhibitor of PRMT5/MEP50, was added to columns 11, 12, 23, 24, rows I-P for the minimum signal control. A cocktail (40 ul) containing the PRMT5/MEP50 enzyme and the peptide was added by Multidrop Combi (Thermo-Fisher). The compounds were allowed to incubate with PRMT5/MEP50 for 30 min at 25 degrees Celsius, then a cocktail (10 ul) containing ^3H-SAM was added to initiate the reaction (final volume=51 ul). The final concentrations of the components were as follows: PRMT5/MEP50 was 4 nM, ^3H-SAM was 75 nM, peptide was 40 nM, SAH in the minimum signal control wells was 100 uM, and the DMSO concentration was 1%. The assays were stopped by the addition of non-radioactive SAM (10 ul) to a final concentration of 600 uM, which dilutes the ^3H-SAM to a level where its incorporation into the peptide substrate is no longer detectable. 50 ul of the reaction in the 384-well polypropylene plate was then transferred to a 384-well Flashplate and the biotinylated peptides were allowed to bind to the streptavidin surface for at least 1 hour before being washed three times with 0.1% Tween20 in a Biotek ELx405 plate washer. The plates were then read in a PerkinElmer TopCount plate reader to measure the quantity of ^3H-labeled peptide bound to the Flashplate surface, measured as disintegrations per minute (dpm) or alternatively, referred to as counts per minute (cpm).
where dpm=disintegrations per minute, cmpd=signal in assay well, and min and max are the respective minimum and maximum signal controls.
where top and bottom are the normally allowed to float, but may be fixed at 100 or 0 respectively in a 3-parameter fit.

T1 sequence (O14744 with tags, fused parts or gaps): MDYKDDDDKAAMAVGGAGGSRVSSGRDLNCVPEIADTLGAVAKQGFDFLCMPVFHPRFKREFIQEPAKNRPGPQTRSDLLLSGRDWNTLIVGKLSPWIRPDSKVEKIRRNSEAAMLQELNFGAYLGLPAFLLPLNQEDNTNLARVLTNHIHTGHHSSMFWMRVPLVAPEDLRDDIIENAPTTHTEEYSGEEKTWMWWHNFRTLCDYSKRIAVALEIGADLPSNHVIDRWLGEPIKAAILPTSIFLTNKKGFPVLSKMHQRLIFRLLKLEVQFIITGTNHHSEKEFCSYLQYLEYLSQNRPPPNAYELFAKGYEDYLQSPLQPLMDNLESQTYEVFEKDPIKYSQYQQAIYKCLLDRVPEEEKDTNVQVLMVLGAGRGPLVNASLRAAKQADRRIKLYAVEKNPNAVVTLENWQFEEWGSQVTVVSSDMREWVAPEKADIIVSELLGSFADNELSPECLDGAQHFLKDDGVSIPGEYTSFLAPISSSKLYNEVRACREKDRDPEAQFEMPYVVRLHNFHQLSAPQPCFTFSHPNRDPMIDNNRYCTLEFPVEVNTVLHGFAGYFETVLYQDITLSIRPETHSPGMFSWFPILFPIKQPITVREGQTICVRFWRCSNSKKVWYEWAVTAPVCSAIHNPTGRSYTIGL
T1 sequence (Q9BQA1 with tags, fused parts or gaps partner limits assumed): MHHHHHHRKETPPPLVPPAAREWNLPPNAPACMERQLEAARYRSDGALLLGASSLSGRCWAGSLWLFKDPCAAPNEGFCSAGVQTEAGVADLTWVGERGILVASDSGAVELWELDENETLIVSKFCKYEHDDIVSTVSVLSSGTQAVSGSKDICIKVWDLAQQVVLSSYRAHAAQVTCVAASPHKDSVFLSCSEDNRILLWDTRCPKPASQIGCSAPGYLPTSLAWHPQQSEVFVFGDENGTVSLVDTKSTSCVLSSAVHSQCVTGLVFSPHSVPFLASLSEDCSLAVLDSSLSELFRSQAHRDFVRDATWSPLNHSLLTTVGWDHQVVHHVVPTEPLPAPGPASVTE

| IC50 [µM] | Structure (SMILES) |
| --- | --- |
| 1 to 10 | OC(COc1ccccc1C1CCCCC1)CN1CCc2ccccc2C1 (stereo not shown) [Compound D8] |
| 0.101 to 1 | OC(COc1ccc(Cc2ccccc2)cc1)CN1CCc2ccccc2C1 (stereo not shown) [Compound D10] |
| 0.101 to 1 | OC(COCc1cc(-c2ccc(Cl)cc2)no1)CN1CCc2ccccc2C1 (stereo not shown) [Compound D11] |
| 1 to 10 | OC(COc1cccc(CNC2CCNCC2)c1)CN1CCc2ccccc2C1 (stereo not shown) [Compound D13] |
| 1 to 10 | OC(COc1cccc(CN2CCCCC2)c1)CN1CCc2ccccc2C1 (stereo not shown) [Compound D14] |
| 1 to 10 | OC(COc1cccc2ccc(N3CCOCC3)nc12)CN1CCc2ccccc2C1 (stereo not shown) [Compound D15] |
| 1 to 10 | OC(COc1ccccc1-c1ccno1)CN1CCc2ccccc2C1 (stereo not shown) [Compound D16] |
| 0.101 to 1 | Cc1cc(OCC(O)CN2CCc3ccccc3C2)c(C)cc1CN1CCOCC1 (stereo not shown) [Compound D17] |
| 1 to 10 | OC(COc1ccc(OCc2ccccc2)cc1)CN1CCc2ccccc2C1 (stereo not shown) [Compound D19] |
| 1 to 10 | OC(COc1cccc(OCc2ccccc2)c1)CN1CCc2ccccc2C1 (stereo not shown) [Compound D20] |
| 1 to 10 | OC(COC1CCN(Cc2ccccc2)C1)CN1CCc2ccccc2C1 (stereo not shown) [Compound D35] |
| 10 to 40 | OC(CCc1cccc(CNC2CCCC2)c1)CN1CCc2ccccc2C1 (stereo not shown) [Compound D36] |
| > 40 | COc1ccc(Cn2nccc2-c2ccc(OC[C@@H](O)CN3CCc4ccccc4C3)cc2)cc1 [Compound D38] |
| 1 to 10 | OC(COc1cccc(-c2cccnc2)c1)CN1CCc2ccccc2C1 (stereo not shown) [Compound D40] |
| 1 to 10 | Cn1cc(-c2cccc(OCC(O)CN3CCc4ccccc4C3)c2)cn1 (stereo not shown) [Compound D44] |
| 1 to 10 | OC(COCc1ccc(CN2CCOCC2)cc1)CN1CCc2ccccc2C1 (stereo not shown) [Compound D46] |
| 1 to 10 | OC(COc1ccc(-c2ccn[nH]2)cc1)CN1CCc2ccccc2C1 (stereo not shown) [Compound D48] |
| 1 to 10 | CC1c2ccccc2CCN1CC(O)COc1cccc(CNC2CCCC2)c1 (stereo not shown) [Compound D50] |
| > 40 | CC1Cc2ccccc2CN1CC(O)COc1cccc(CNC2CCCC2)c1 (stereo not shown) [Compound D51] |
| 1 to 10 | OC(COc1cccc(C2CCCCC2)c1)CN1CCc2ccccc2C1 (stereo not shown) [Compound D52] |
| > 40 | COc1cccc2c1CCN(CC(O)COc1cccc(CNC3CCCC3)c1)C2 (stereo not shown) [Compound D54] |
| 1 to 10 | OC(COc1cccc(-c2cccc(Oc3ccccc3)c2)c1)CN1CCc2ccccc2C1 (stereo not shown) [Compound D55] |

| IC50 [µM] | Structure (SMILES) |
| --- | --- |
| > 40 | CC1CN(CC(O)COc2cccc(CNC3CCCC3)c2)Cc2ccccc21 (stereo not shown) [Compound D56] |
| 1 to 10 | OC(COc1cccc(C2=CCCCC2)c1)CN1CCc2ccccc2C1 (stereo not shown) [Compound D57] |
| > 40 | CN(C)S(=O)(=O)c1cccc(-c2cccc(OCC(O)CN3CCc4ccccc4C3)c2)c1 (stereo not shown) [Compound D61] |
| 1 to 10 | COc1ccc(Cl)c(-c2cccc(OCC(O)CN3CCc4ccccc4C3)c2)c1 (stereo not shown) [Compound D64] |
| 0.101 to 1 | Cn1cnc2ccc(N3CCCC(OCC(O)CN4CCc5ccccc5C4)C3)cc21 (stereo not shown) [Compound D66] |
| 1 to 10 | OC(COc1cccc(-c2ccc(Cl)cc2)c1)CN1CCc2ccccc2C1 (stereo not shown) [Compound D69] |
| 1 to 10 | Oc1ccc(-c2cccc(OCC(O)CN3CCc4ccccc4C3)c2)cc1F (stereo not shown) [Compound D70] |
| 1 to 10 | COc1ccccc1-c1cccc(OCC(O)CN2CCc3ccccc3C2)c1 (stereo not shown) [Compound D71] |
| 1 to 10 | OCc1ccc(-c2cccc(OCC(O)CN3CCc4ccccc4C3)c2)cc1 (stereo not shown) [Compound D73] |
| 1 to 10 | OC(COc1cccc(-c2cncc(F)c2)c1)CN1CCc2ccccc2C1 (stereo not shown) [Compound D76] |
| 1 to 10 | OC(COc1cccc(-c2ccc(F)cc2)c1)CN1CCc2ccccc2C1 (stereo not shown) [Compound D77] |
| 1 to 10 | Cc1ccc(-c2cccc(OCC(O)CN3CCc4ccccc4C3)c2)cn1 (stereo not shown) [Compound D78] |
| 10 to 40 | O=C(NC1CCOCC1)c1cccc(NCC(O)CN2CCc3ccccc3C2)c1 (stereo not shown) [Compound D79] |
| 1 to 10 | OC(COc1cccc(-c2cccc(C(F)(F)F)c2)c1)CN1CCc2ccccc2C1 (stereo not shown) [Compound D87] |
| 1 to 10 | OC(COc1cccc(-c2cccc(Cl)c2)c1)CN1CCc2ccccc2C1 (stereo not shown) [Compound D91] |
| 1 to 10 | Oc1ccc(-c2cccc(OCC(O)CN3CCc4ccccc4C3)c2)cc1 (stereo not shown) [Compound D96] |
| 1 to 10 | OC(COc1cccc(-c2ccncc2)c1)CN1CCc2ccccc2C1 (stereo not shown) [Compound D97] |
| 1 to 10 | OC(COc1cccc(-c2ccccn2)c1)CN1CCc2ccccc2C1 (stereo not shown) [Compound D98] |
| 10 to 40 | CN(CC(O)CN1CCc2ccccc2C1)c1cccc(C(=O)NC2CCOCC2)c1 (stereo not shown) [Compound D99] |
| 1 to 10 | COc1cccc2c1CN(CC(O)COc1cccc(-c3ccc4ncn(C)c4c3)c1)CC2 (stereo not shown) [Compound D100] |
| 1 to 10 | CC1CN(CC(O)COc2cccc(-c3ccc4ncn(C)c4c3)c2)Cc2ccccc21 (stereo not shown) [Compound D101] |
| 1 to 10 | Cn1cc2cc(-c3cccc(OCC(O)CN4CCc5ccccc5C4)c3)ccc2n1 (stereo not shown) [Compound D115] |

| IC50 [µM] | Structure (SMILES) |
| --- | --- |
| 1 to 10 | Cn1cnc2ccc(-c3nccc(NCC(O)CN4CCc5ccccc5C4)n3)cc21 (stereo not shown) [Compound D120] |
| 1 to 10 | CC1Cc2ccccc2CN1CC(O)COc1cccc(-c2ccc3ncn(C)c3c2)c1 (stereo not shown) [Compound D122] |
| 1 to 10 | OC(COc1cccc(-c2cc(Cl)cc(C(F)(F)F)c2)c1)CN1CCc2ccccc2C1 (stereo not shown) [Compound D128] |
| 1 to 10 | OC(COc1cccc(-c2ccc(C(F)(F)F)cc2)c1)CN1CCc2ccccc2C1 (stereo not shown) [Compound D133] |
| 1 to 10 | OC(COc1cccc(-c2cncnc2)c1)CN1CCc2ccccc2C1 (stereo not shown) [Compound D140] |
| 1 to 10 | COc1cccc2c1CCN(CC(O)COc1cccc(-c3ccc4ncn(C)c4c3)c1)C2 (stereo not shown) [Compound D142] |
| > 40 | Cn1cnc2ccc(-c3cccc(OCC(O)CN4CCc5ccccc5C4Cc4ccccc4)c3)cc21 (stereo not shown) [Compound D143] |
| 1 to 10 | CCOC(=O)CC1c2ccccc2CCN1CC(O)COc1cccc(-c2ccc3ncn(C)c3c2)c1 (stereo not shown) [Compound D144] |
| > 40 | COc1cc2c(cc1OC)CN(CC(O)COc1cccc(-c3ccc4ncn(C)c4c3)c1)CC2 (stereo not shown) [Compound D146] |
| 1 to 10 | COc1ncc(-c2cccc(OCC(O)CN3CCc4ccccc4C3)c2)cn1 (stereo not shown) [Compound D153] |
| 1 to 10 | OC(COc1cccc(-c2cnccn2)c1)CN1CCc2ccccc2C1 (stereo not shown) [Compound D155] |
| 1 to 10 | O=C(Nc1cccc(OCC(O)CN2CCc3ccccc3C2)c1)c1cnco1 (stereo not shown) [Compound D158] |
| 1 to 10 | O=C(Nc1cccc(OCC(O)CN2CCc3ccccc3C2)c1)c1cocn1 (stereo not shown) [Compound D159] |
| 1 to 10 | Cn1cnc2nc(-c3cccc(OCC(O)CN4CCc5ccccc5C4)c3)ncc21 (stereo not shown) [Compound D165] |
| 1 to 10 | OC(COC1CCN(c2ccccc2)C1)CN1CCc2ccccc2C1 (stereo not shown) [Compound D175] |
| 10 to 40 | COc1ccc2c(c1)CN(CC(O)COc1cccc(-c3ccc4ncn(C)c4c3)c1)CC2 (stereo not shown) [Compound D177] |
| > 40 | Cn1cnc2ccc(-c3cccc(OCC(O)CN4CCc5ccccc5C4COc4ccccc4)c3)cc21 (stereo not shown) [Compound D178] |
| 1 to 10 | O=C(c1cncc(-c2cccc(OCC(O)CN3CCc4ccccc4C3)c2)c1)N1CCCC1 (stereo not shown) [Compound D181] |
| 1 to 10 | O=C(Nc1cccc(OCC(O)CN2CCc3ccccc3C2)c1)c1ccnnc1 (stereo not shown) [Compound D184] |
| 1 to 10 | OC(COc1cccc(-c2ccncc2F)c1)CN1CCc2ccccc2C1 (stereo not shown) [Compound D190] |

Reference: patent US20150344457A1, “METHODS OF INHIBITING PRMT5” (EPIZYME, INC., priority 2012, published 2015)
